Data set [1] is described as follows: Plasma pharmacokinetics of BIO-MYBMIM, spectrophotometric avidin assay. The data set is classed as in vivo, mouse. As to conditions: C57BL/6J mice, single dose 25 mg/kg IP. Here is the method:
All mouse experiments were carried out in accordance with the Memorial Sloan Kettering Institutional Animal Care and Use Committee. For toxicity studies, female C57BL/6J mice (The Jackson Laboratory, Bar Harbor, Maine, USA) were treated with MYBMIM peptide suspended in PBS and administered daily through intraperitoneal injection at a dose of 25 mg/kg for a total of 7 days. Mice were sacrificed at the end of treatment for hematologic, biochemical and histologic analyses. For pharmacokinetic studies, C57BL/6J mice (The Jackson Laboratory, Bar Harbor, Maine, USA) were treated with a single IP injection of 25 mg/kg BIO-MYBMIM, and blood plasma was collected 30 min, 2 h, 4 h, and 24 h post-injection. Quantification of BIO-MYBMIM was measured using the Quant-Tag Biotin kit (Vector Labs, cat. # BDK-2000) following the manufacturer instructions. For patient-derived xenografts, two hundred thousand primary AML MLL-rearranged leukemia cells were suspended in […] of PBS and transplanted via tail vein injection into 8-week-old sublethally irradiated (200 rad) female NOD.Cg-Prkdc(scid)Il2rg(tm1Wjl)/SzJ mice (The Jackson Laboratory, Bar Harbor, Maine, USA). […] Mice were treated from days 3–17 of this study for a total of 14 days and then monitored daily with clinical examination for survival analysis.

For data set [2], the system named is MOLM-13, MV-411, ML-2 and HL-60 cells. Description: Cell viability of AML cell lines. The data set is classed as cell-based, human. As to conditions: 6 days, 20 μM TG1, TG2 or TG3, 10 and 20 μM MYBMIM, peptide replacement every 48 h, compared to untreated control. Here is the method: (§1) Cells were resuspended and plated at a concentration of 2 × 10^5 cells in 200 μl in 96-well tissue culture plates. Media with peptides was replaced every 48 h. To assess the number of viable cells, cells were resuspended in PBS and 10 µl of suspension was mixed in a 1:1 ratio with 0.4% Trypan Blue (Thermo Fisher) and counted using a hemacytometer (Hausser Scientific, Horsham, PA, USA). To assess viability using an ATP-based assay, cell viability was assessed using the CellTiter-Glo Luminescent Viability assay, according to the manufacturer’s instructions (Promega). Luminescence was recorded using the Infinite M1000Pro plate reader using integration time of 250 ms (Tecan).

Data set [3] concerns MOLM13, OCIAML2, and K562 cells. The data set is described as follows: Cell viability with L-amino acid containing peptides. The data set is classed as cell-based. The settings on record: 20 μM, 2 days, three biological replicates. Here is the method:
as §1
Supplementary Figure 5. Viability of MOLM13, OCIAML2, and K562 cells, treated for 2 days with control PBS (black), 20 μM TATMYG (blue), and 20 μM TATMYB (red). Error bars […]
between treatment conditions.
(1 picture or pasted object on this page, not shown here)

Data set [4] deals with FITC-conjugated MYB peptide (L-amino acid containing counterpart of MYBMIM) (UniProt P10242). Description: MST.
The target of data set [5] is T1, purified recombinant CBP KIX domain (UniProt P45481 586-665).
T1 construct: also called KIX domain of CBP; source: E. coli BL21(DE3), pGEX-KIX, purified (glutathione agarose, thrombin cleavage, MonoS cation exchange)
T1 sequence (P45481 586-665): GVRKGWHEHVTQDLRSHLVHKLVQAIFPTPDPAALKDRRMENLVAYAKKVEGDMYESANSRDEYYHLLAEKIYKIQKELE
Description: MST. The settings on record: both partners purified.

Non-standard residues stand in square brackets, D forms with d. Residues, ends and D or L forms follow the SMILES beside them. No end group written: not given here. *: point of attachment. Biotin = O=C1N[C@H]2[C@H](CS[C@H]2CCCCC(=O)*)N1

Consider `CC[C@@H](C)[C@@H](NC(=O)[C@@H](CCCCN)NC(=O)[C@@H](CCC(=O)O)NC(=O)[C@@H](CC(C)C)NC(=O)[C@@H](CCC(=O)O)NC(=O)[C@@H](CC(C)C)NC(=O)[C@@H](CC(C)C)NC(=O)[C@@H](CC(C)C)NC(=O)[C@@H](CCSC)NC(=O)[C@@H](CO)NC(=O)[C@H](NC(=O)[C@@H](CCC(=O)O)NC(=O)[C@@H](CC(N)=O)NC(=O)[C@@H](CCC(=O)O)NC(=O)[C@@H](CC(C)C)NC(=O)[C@@H](CCCCN)NC(C)=O)[C@H](C)O)C(=O)N[C@H](CCCNC(=N)N)C(=O)N[C@H](CCCCN)C(=O)NCC(=O)NCC(=O)N[C@H](CCCNC(=N)N)C(=O)N[C@H](CCCNC(=N)N)C(=O)N[C@H](CCCNC(=N)N)C(=O)N[C@H](CCC(N)=O)C(=O)N[C@H](CCCNC(=N)N)C(=O)N[C@H](CCCNC(=N)N)C(=O)N[C@H](CCCCN)C(=O)N[C@H](CCCCN)C(=O)N[C@H](CCCNC(=N)N)C(=O)NCC(=O)N[C@H](Cc1ccc(O)cc1)C(=O)N[C@H](CCCCNC(=O)CCCC[C@@H]1SC[C@@H]2NC(=O)N[C@@H]21)C(N)=O` [BIO-MYBMIM] (Ac-[dK][dL][dE][dN][dE][dT][dS][dM][dL][dL][dL][dE][dL][dE][dK][dI][dR][dK]GG[dR][dR][dR][dQ][dR][dR][dK][dK][dR]G[dY][dK](Biotin)-NH2), for which the Plasma elimination result in data set [1] is on record as “biphasic elimination”. Further, the “Time of peak plasma peptide levels post injection” value in data set [1] (plasma collected at 30 min, 2 h, 4 h, 24 h) is at most 30 min. For `CC[C@@H](C)[C@@H](NC(=O)[C@@H](CCCCN)NC(=O)[C@@H](CCC(=O)O)NC(=O)[C@@H](CC(C)C)NC(=O)[C@@H](CCC(=O)O)NC(=O)[C@@H](CC(C)C)NC(=O)[C@@H](CC(C)C)NC(=O)CNC(=O)[C@@H](CCSC)NC(=O)[C@@H](CO)NC(=O)[C@H](NC(=O)[C@@H](CCC(=O)O)NC(=O)[C@@H](CC(N)=O)NC(=O)[C@@H](CCC(=O)O)NC(=O)[C@@H](CC(C)C)NC(=O)[C@@H](CCCCN)NC(C)=O)[C@H](C)O)C(=O)N[C@H](CCCNC(=N)N)C(=O)N[C@H](CCCCN)C(=O)NCC(=O)NCC(=O)N[C@H](CCCNC(=N)N)C(=O)N[C@H](CCCNC(=N)N)C(=O)N[C@H](CCCNC(=N)N)C(=O)N[C@H](CCC(N)=O)C(=O)N[C@H](CCCNC(=N)N)C(=O)N[C@H](CCCNC(=N)N)C(=O)N[C@H](CCCCN)C(=O)N[C@H](CCCCN)C(=O)N[C@H](CCCNC(=N)N)C(=O)NCC(=O)N[C@H](Cc1ccc(O)cc1)C(N)=O` [TG1] (Ac-[dK][dL][dE][dN][dE][dT][dS][dM]G[dL][dL][dE][dL][dE][dK][dI][dR][dK]GG[dR][dR][dR][dQ][dR][dR][dK][dK][dR]G[dY]-NH2), the “Growth of AML cell lines” value in data set [2] was “inactive”. The same measure, in the same setting: under `CC[C@@H](C)[C@@H](NC(=O)[C@@H](CCCCN)NC(=O)[C@@H](CCC(=O)O)NC(=O)[C@@H](CC(C)C)NC(=O)[C@@H](CCC(=O)O)NC(=O)[C@@H](CC(C)C)NC(=O)[C@@H](CC(C)C)NC(=O)CNC(=O)[C@@H](CCSC)NC(=O)[C@@H](CO)NC(=O)[C@H](NC(=O)[C@@H](CCC(=O)O)NC(=O)[C@@H](CC(N)=O)NC(=O)CNC(=O)[C@@H](CC(C)C)NC(=O)[C@@H](CCCCN)NC(C)=O)[C@H](C)O)C(=O)N[C@H](CCCNC(=N)N)C(=O)N[C@H](CCCCN)C(=O)NCC(=O)NCC(=O)N[C@H](CCCNC(=N)N)C(=O)N[C@H](CCCNC(=N)N)C(=O)N[C@H](CCCNC(=N)N)C(=O)N[C@H](CCC(N)=O)C(=O)N[C@H](CCCNC(=N)N)C(=O)N[C@H](CCCNC(=N)N)C(=O)N[C@H](CCCCN)C(=O)N[C@H](CCCCN)C(=O)N[C@H](CCCNC(=N)N)C(=O)NCC(=O)N[C@H](Cc1ccc(O)cc1)C(N)=O` [TG2] (Ac-[dK][dL]G[dN][dE][dT][dS][dM]G[dL][dL][dE][dL][dE][dK][dI][dR][dK]GG[dR][dR][dR][dQ][dR][dR][dK][dK][dR]G[dY]-NH2) stands “inactive”. Turning to “Ac-YGRKKRRQRRRGGKRIKELELLLMSTENELK-NH2 [TATMYB]”, the Viability entry in data set [3] is reported as “no significant differences”. Still for that read-out and setting: under “Ac-YGRKKRRQRRRGGKRIKELELLLMSTENGLK-NH2 [TATMYG]” stands “no significant differences”. Take “purified recombinant CBP KIX domain (from UniProt P45481 586-665) (domain or fragment)”: the dissociation constant Kd in data set [4] turned out to be 4.2 µM.

Regarding [dK][dL]G[dN][dE][dT][dS][dM]G[dL][dL][dE][dL][dE][dK][dI][dR][dK]GG[dR][dR][dR][dQ][dR][dR][dK][dK][dR]G[dY]-NH2 (also: FITC-conjugated, site not given here) [FITC-conjugated TG2], the equilibrium dissociation constant (Kd) in data set [5] amounted to 75.1 ± 12.5 µM. On the same count and under the same terms, under [dK][dL]G[dN][dE][dT][dS][dM]G[dL][dL][dE][dL][dE][dK][dI]G[dK]GG[dR][dR][dR][dQ][dR][dR][dK][dK][dR]G[dY]-NH2 (also: FITC-conjugated, site not given here) [FITC-conjugated TG3] stands 114 ± 36.6 µM.

B1: FITC-conjugated MYBMIM (peptide)
chain: [dK][dL][dE][dN][dE][dT][dS][dM][dL][dL][dL][dE][dL][dE][dK][dI][dR][dK]
modifications: also: FITC-conjugated, site not given here, retro-inverso TAT delivery segment not in chain
On to B1, for which the Kd in data set [5] stood at 21.3 ± 2.9 µM.

As to [dK][dL][dE][dN][dE][dT][dS][dM]G[dL][dL][dE][dL][dE][dK][dI][dR][dK]GG[dR][dR][dR][dQ][dR][dR][dK][dK][dR]G[dY]-NH2 (also: FITC-conjugated, site not given here) [FITC-conjugated TG1], the dissociation constant Kd in data set [5] is 59.2 ± 12.4 µM.

(Values after publication PMC5760651, “Peptidomimetic blockade of MYB in acute myeloid leukemia” (Nature Communications, 2018).)
